Experimental findings from PubChem BioAssay (NCI) are described below.

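Test compounds were applied to cells in 96-well plates for 48 hours at 5 doses. The concentration for 50% growth inhibition is given as GI50. TGI: concentration producing complete growth inhibition.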

Holding throughout (assay): NCI-60 cell line screen, 48 h
In experiment [1] the test system is ACHN renal.
Experiment [2] has as its system RXF 393 renal.
For experiment [3], the system named is OVCAR-3 ovarian.
The test system of experiment [4] is TK-10 renal.
The test system of experiment [5] is SF-295 CNS.
For experiment [6], the system named is UO-31 renal.
In experiment [7] the test system is MOLT-4 leukemia.
The subject of experiment [8] is CAKI-1 renal.
Experiment [9] relates to IGROV1 ovarian.
The subject of experiment [10] is 786-0 renal.

Turning to `CCCCCCCCCCCCCCCCC1=CC(=O)C=C(OC)C1=O`, the TGI in experiment [1], in experiment [2], in [3], in experiment [4], in [5] and in [6] was over 100 µM in each case. Also, the TGI in experiment [7], in experiment [8], in [9] and in experiment [10] was over 100 µM each time.
Turning to `CC[O-].CC[O-].[O-]c1ccccc1C=Nc1ccccc1.[O-]c1ccccc1C=Nc1ccccc1.[Ti+4]`, the GI50 is 23.8 µM in experiment [1]; over 100 µM in experiment [2]; over 100 µM in experiment [3]; over 100 µM in experiment [4]; over 100 µM in experiment [5]; over 100 µM in experiment [6]. The GI50 was 28.4 µM in experiment [7], 85.1 µM in experiment [8], over 100 µM in [9] and over 100 µM in experiment [10]. Besides, the TGI in experiment [1], in [2], in [3], in experiment [4], in [5] and in experiment [6] was over 100 µM in each case. Also, the TGI in experiment [7], in experiment [8], in experiment [9] and in [10] was over 100 µM in each case.
As to `C[C@]12CCC[C@H](OC=O)C1(O)C[C@H](C(=O)O)CC2` (some centres undefined), the TGI in experiment [1], in [2], in [3], in experiment [4], in experiment [5] and in [6] was over 100 µM each time. Further, the TGI in [7], in experiment [8], in experiment [9] and in [10] was over 100 µM each time.
On to `COc1ccc(OC)c(/C=C/c2nnc(Nc3ccc(Cl)cc3)o2)c1`, for which the GI50 in experiment [1] was 3.29 µM; in experiment [2], 2.71 µM; in [3] it was 3.55 µM; in [4], 7.4 µM; in experiment [5], 6.15 µM; in experiment [6], 3.13 µM. The GI50 is over 100 µM in experiment [7], 6.02 µM in [8], 7.69 µM in experiment [9] and 2.67 µM in experiment [10]. In addition, the TGI in [1] was found to be 19.9 µM; in experiment [2] it was 7.92 µM; in [3], 15.9 µM; in experiment [4], 83.2 µM; in experiment [5], 64.5 µM; in [6], 12.6 µM. In addition, the TGI in [7] is over 100 µM; in [8] it was over 100 µM; in [9] it was over 100 µM; in [10], 7.6 µM.
For `N=c1nc(N)c2cc3c(N)nc(=N)c3cc12`, the TGI is over 100 µM in experiment [1]; 25.3 µM in experiment [2]; 75.2 µM in [3]; 57.2 µM in experiment [4]; 51 µM in experiment [5]; 34.5 µM in experiment [6]. For the same compound, the TGI was over 61 µM in experiment [7], 41.6 µM in experiment [8], over 100 µM in [9] and 56.6 µM in experiment [10].
For the compound `CCN(Cc1ccc(F)cc1)c1ccc(CO)c(Cl)c1`, the GI50 in experiment [1] is 10.2 µM; in experiment [2], 2.81 µM; in [3], 0.704 µM; in experiment [4], 0.0366 µM; in experiment [5], 0.714 µM; in experiment [6], 3.02 µM. Besides, the GI50 was 15.1 µM in experiment [7], 0.487 µM in [8], 0.0776 µM in [9] and 4.6 µM in experiment [10]. Also, the TGI in [1] was over 48.6 µM; in [2], 21.2 µM; in experiment [3], 6.18 µM; in experiment [4], 0.181 µM; in [5], 14 µM; in [6] it was 31.5 µM. The TGI in experiment [7] was determined as 42.6 µM; in experiment [8], 8.79 µM; in [9], 0.605 µM; in experiment [10], 23.3 µM.
For `CCN1C(=O)N(CC)C2C1NN=c1s/c(=C3\C(=O)N(CCC(C)C)c4ccccc43)c(=O)n12` (centres undefined), the GI50 is 1.86 µM in experiment [1]; 0.738 µM in [2]; 1.75 µM in experiment [3]; 9.44 µM in [4]; 1.34 µM in [5]; 2.86 µM in [7]. Besides, the GI50 is 0.686 µM in experiment [8], 1.23 µM in experiment [9] and 1.83 µM in experiment [10]. For the same compound, the TGI in experiment [1] was 6.7 µM; in experiment [2], 3.62 µM; in experiment [3], 4.33 µM; in experiment [4], 71.7 µM; in experiment [5] it was 3.86 µM; in experiment [7], over 100 µM. The TGI in experiment [8] stood at 4.17 µM; in experiment [9] it was 6.63 µM; in [10] it was 4.5 µM.
As for `OCCN1CCN(CCO)Cc2ccccc2OCCOc2ccccc2C1`, the TGI in [1], in experiment [2], in experiment [3], in experiment [4], in experiment [6] and in experiment [7] was over 100 µM each time. Also, the TGI in experiment [8], in experiment [9] and in experiment [10] was over 100 µM throughout.
Consider `COc1ccc2[nH]c3c4c(c5cc(C(C)(C)C)ccc5c3c2c1)C(=O)N(c1ccccc1)C4=O`, for which the TGI in experiment [2], in experiment [3], in [4], in experiment [5], in experiment [6] and in [7] was over 100 µM in each case. In addition, the TGI in [8], in experiment [9] and in [10] was over 100 µM each time.
As to `CC1(C)CCC(=O)c2c(O)ccc(O)c21`, the TGI was 77.7 µM in [2]; over 100 µM in experiment [3]; over 100 µM in experiment [4]; over 100 µM in [5]; over 100 µM in experiment [6]; over 100 µM in [7]. In addition, the TGI in [8], in [9] and in experiment [10] was over 100 µM in each case.
As to `CC[C@H](C)c1occ2c(O)c(C(=O)O)c(=O)cc-2c1C`, the TGI in [1] is 65.4 µM; in experiment [2], 33.5 µM; in experiment [3], 42.4 µM; in [4], over 100 µM; in [5] it was 99.3 µM; in experiment [7] it was 54.3 µM. Also, the TGI in [8] was over 100 µM; in experiment [9] it was 37.2 µM; in [10], over 100 µM.
